This data set can be described thus: Solubility in ultrapure water when preparing peptide solutions. In kind it is physicochemical.

With `CC(=O)N[C@@H](CCCNC(=N)N)C(=O)N[C@@H](C)C(=O)N[C@@H](CC(=O)O)C(=O)N[C@@H](C)C(=O)N[C@@H](CCCNC(=N)N)C(=O)N[C@@H](C)C(=O)N[C@@H](CC(=O)O)C(=O)N[C@@H](C)C(=O)N[C@@H](CCCNC(=N)N)C(=O)N[C@@H](C)C(=O)N[C@@H](CC(=O)O)C(=O)N[C@@H](C)C(=O)N[C@@H](CCCNC(=N)N)C(=O)N[C@@H](C)C(=O)N[C@@H](CC(=O)O)C(=O)N[C@@H](C)C(N)=O` [(RADA)4], the solubility in water result is given as “did not completely dissolve at a concentration of 2% by weight or higher”.
